Target: T1, human mineralocorticoid receptor (MR) (Homo sapiens, UniProt P08235)
T1 construct: expressed in transfected cells
T1 sequence (P08235 734-984 limits assumed): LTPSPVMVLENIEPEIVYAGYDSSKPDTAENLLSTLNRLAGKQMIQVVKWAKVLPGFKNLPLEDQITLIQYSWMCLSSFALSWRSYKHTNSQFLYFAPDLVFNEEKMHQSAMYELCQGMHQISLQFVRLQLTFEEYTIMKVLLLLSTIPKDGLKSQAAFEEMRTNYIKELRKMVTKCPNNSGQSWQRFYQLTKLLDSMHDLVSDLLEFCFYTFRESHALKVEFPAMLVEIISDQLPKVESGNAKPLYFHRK
Experiment: Cellular in vitro assay to determine the inhibitory MR activity (GAL4-MR chimera luciferase reporter in CHO K1 cells)
Format: cell-based
Conditions: aldosterone as agonist
Description: 1. Cellular In Vitro Assay to Determine the Inhibitory MR Activity and MR Selectivity Compared with Other Steroid Hormone Receptors
Antagonists of the human mineralocorticoid receptor (MR) are identified, and the activity of the compounds described herein is quantified with the aid of a recombinant cell line. The cell is originally derived from a hamster ovary epithelial cell (Chinese Hamster Ovary, CHO K1, ATCC: American Type Culture Collection, Va. 20108, USA).
An established chimera system in which the ligand-binding domains of human steroid hormone receptors are fused to the DNA-binding domain of the yeast transcription factor GAL4 is used in this CHO K1 cell line. The GAL4-steroid hormone receptor chimeras produced in this way are cotransfected and stably expressed with a reporter construct in the CHO cells.
To generate the GAL4-steroid hormone receptor chimeras, the GAL4 DNA binding domain (amino acids 1-147) from the vector pFC2-dbd (from Stratagene) is cloned with the PCR-amplified ligand-binding domains of the mineralocorticoid receptor (MR, amino acids 734-985), of the glucocorticoid receptor (GR, amino acids 443-777), of the progesterone receptor (PR, amino acids 680-933) and of the androgen receptor (AR, amino acids 667-919) into the vector pIRES2 (from Clontech). The reporter construct, which comprises five copies of the GAL4 binding site upstream of a thymidine kinase promoter, leads to expression of firefly-luciferase (Photinus pyralis) after activation and binding of the GAL4-steroid hormone receptor chimeras by the respective specific agonists aldosterone (MR), dexamethasone (GR), progesterone (PR) and dihydrotestosterone (AR).
The MR, GR, PR and AR cells are plated out in medium (Optimem, 2.5% FCS, 2 mM glutamine, 10 mM HEPES) in 96- (or 384- or 1536-) well microtiter plates on the day before the assay and are kept in a cell incubator (96% humidity, 5% v/v CO2, 37° C.). On the day of the assay, the substances to be tested are taken up in the abovementioned medium and added to the cells. About 10 to 30 minutes after addition of the test substances, the respective specific agonists of the steroid hormone receptors are added. After a further incubation time of 5 to 6 hours, the luciferase activity is measured with the aid of a video camera. The measured relative light units as a function of the substance concentration result in a sigmoidal stimulation curve. The IC50 values are calculated with the aid of the GraphPad PRISM computer program (Version 3.02).

Structure (SMILES)	IC50 [nM]
COc1cc(C#N)ccc1C1C(C#N)=C(C)NC(C)=C1c1nc(C)cs1 (stereo not shown) [Example 1, 4-(4-Cyano-2-methoxyphenyl)-2,6-dimethyl-5-(4-methyl-1,3-thiazol-2-yl)-1,4-dihydropyridine-3-carbonitrile]	94
CC1=C(C#N)C(c2cccc3c(=O)cc(C)oc23)C(c2nc(C)cs2)=C(C)N1 (stereo not shown) [Example 4, 2,6-Dimethyl-4-(2-methyl-4-oxo-4H-chromen-8-yl)-5-(4-methyl-1,3-thiazol-2-yl)-1,4-dihydro-pyridine-3-carbonitrile]	95
COc1cc(C#N)ccc1C1C(C#N)=C(C)NC(C)=C1c1nc2ccccc2s1 (stereo not shown) [Example 12, 5-(1,3-Benzothiazol-2-yl)-4-(4-cyano-2-methoxyphenyl)-2,6-dimethyl-1,4-dihydropyridine-3-carbonitrile]	74
CCc1cnc(C2=C(C)NC(C)=C(C#N)C2c2ccc(C#N)cc2OC)s1 (stereo not shown) [Example 23, 4-(4-Cyano-2-methoxyphenyl)-5-(5-ethyl-1,3-thiazol-2-yl)-2,6-dimethyl-1,4-dihydropyridine-3-carbonitrile]	18

Other lines, results leading:

IC50 [nM]	Structure (SMILES)
10	COc1cc(C#N)ccc1C1C(C#N)=C(C(F)(F)F)NC(C)=C1c1nc(C)cs1 (stereo not shown) [Example 3, 4-(4-Cyano-2-methoxyphenyl)-6-methyl-5-(4-methyl-1,3-thiazol-2-yl)-2-(trifluoromethyl)-1,4-dihydropyridine-3-carbonitrile]
278	CC1=C(C#N)C(c2cccc3ncc(C)cc23)C(c2nc(C)cs2)=C(C)N1 (stereo not shown) [Example 18, 2,6-Dimethyl-4-(3-methylquinolin-5-yl)-5-(4-methyl-1,3-thiazol-2-yl)-1,4-dihydropyridine-3-carbonitrile]
320	COc1cc(C#N)ccc1C1C(C#N)=C(C)NC(C)=C1c1nnc(C)s1 (stereo not shown) [Example 24, 4-(4-Cyano-2-methoxyphenyl)-2,6-dimethyl-5-(5-methyl-1,3,4-thiadiazol-2-yl)-1,4-dihydropyridine-3-carbonitrile]

From patent US8404723B2, “3-cyano 5-thiazaheteroaryl-dihydropyridine and the use thereof for the treatment of cardiovascular diseases” (Bayer Intellectual Property GmbH, priority 2006, dated 2013)
